Laboratory results: patent US12157741B2, “Macrocyclic inhibitors of DYRK1A” (DANA-FARBER CANCER INSTITUTE, INC., priority 2018, dated 2024)
Read-outs that look alike come from different tables or passages of the source.

Experiments:
Assay type in all cases: binding
various enzymes [1] = molecular target: various enzymes (Homo sapiens, UniProt Q96PN8); conditions: compound 1 uM
Method: (§1) Ambit profiling was conducted in accordance with the manufacturer's instructions.

various enzymes [2] = molecular target: various enzymes (Homo sapiens, UniProt Q16816); conditions: compound 1 uM
various enzymes (Homo sapiens, UniProt Q16816), sequence (Q16816 whole entry): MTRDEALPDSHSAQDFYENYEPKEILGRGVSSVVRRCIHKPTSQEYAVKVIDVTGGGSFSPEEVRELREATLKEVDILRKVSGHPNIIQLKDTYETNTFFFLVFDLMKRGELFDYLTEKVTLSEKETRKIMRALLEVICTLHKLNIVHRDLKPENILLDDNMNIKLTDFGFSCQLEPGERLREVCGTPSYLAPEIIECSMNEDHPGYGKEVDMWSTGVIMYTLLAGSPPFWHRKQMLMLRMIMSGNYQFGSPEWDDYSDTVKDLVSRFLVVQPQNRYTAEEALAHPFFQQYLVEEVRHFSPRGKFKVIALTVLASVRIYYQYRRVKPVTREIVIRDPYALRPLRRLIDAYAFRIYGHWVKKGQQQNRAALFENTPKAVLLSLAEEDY
Method: as §1

various enzymes [3] = molecular target: various enzymes (Homo sapiens, UniProt P36896); conditions: compound 1 uM
Method: as §1

various enzymes [4] = molecular target: various enzymes (Homo sapiens, UniProt O15111); conditions: compound 1 uM
various enzymes (Homo sapiens, UniProt O15111), sequence (O15111 whole entry): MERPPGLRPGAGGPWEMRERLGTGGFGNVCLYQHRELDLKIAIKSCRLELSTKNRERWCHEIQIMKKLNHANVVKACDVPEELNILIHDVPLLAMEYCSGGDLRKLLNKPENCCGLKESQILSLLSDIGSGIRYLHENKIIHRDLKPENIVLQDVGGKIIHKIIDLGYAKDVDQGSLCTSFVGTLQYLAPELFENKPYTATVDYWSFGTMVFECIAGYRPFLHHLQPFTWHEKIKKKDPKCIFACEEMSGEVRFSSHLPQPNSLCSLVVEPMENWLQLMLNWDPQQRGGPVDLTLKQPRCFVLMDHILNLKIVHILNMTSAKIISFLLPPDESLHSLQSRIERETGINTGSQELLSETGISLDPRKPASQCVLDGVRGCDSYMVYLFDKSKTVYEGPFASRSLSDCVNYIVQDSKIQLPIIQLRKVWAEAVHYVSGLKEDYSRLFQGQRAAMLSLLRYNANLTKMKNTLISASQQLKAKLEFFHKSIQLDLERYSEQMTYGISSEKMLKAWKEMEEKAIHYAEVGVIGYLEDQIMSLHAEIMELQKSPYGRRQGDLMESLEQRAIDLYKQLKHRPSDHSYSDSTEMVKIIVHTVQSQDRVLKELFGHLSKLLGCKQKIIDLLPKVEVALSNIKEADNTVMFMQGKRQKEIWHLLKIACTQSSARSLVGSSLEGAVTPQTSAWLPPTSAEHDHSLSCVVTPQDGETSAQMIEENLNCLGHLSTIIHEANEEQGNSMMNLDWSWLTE
Method: as §1

various enzymes [5] = molecular target: various enzymes (Homo sapiens, UniProt P08922); conditions: compound 1 uM
Method: as §1

various enzymes [6] = molecular target: various enzymes (Homo sapiens, UniProt Q06418); conditions: compound 1 uM
Method: as §1

various enzymes [7] = molecular target: various enzymes (Homo sapiens, UniProt Q9Y463); conditions: compound 1 uM
Method: as §1

various enzymes [8] = molecular target: various enzymes (Homo sapiens, UniProt P68400); conditions: compound 1 uM
various enzymes (Homo sapiens, UniProt P68400), sequence (P68400 whole entry): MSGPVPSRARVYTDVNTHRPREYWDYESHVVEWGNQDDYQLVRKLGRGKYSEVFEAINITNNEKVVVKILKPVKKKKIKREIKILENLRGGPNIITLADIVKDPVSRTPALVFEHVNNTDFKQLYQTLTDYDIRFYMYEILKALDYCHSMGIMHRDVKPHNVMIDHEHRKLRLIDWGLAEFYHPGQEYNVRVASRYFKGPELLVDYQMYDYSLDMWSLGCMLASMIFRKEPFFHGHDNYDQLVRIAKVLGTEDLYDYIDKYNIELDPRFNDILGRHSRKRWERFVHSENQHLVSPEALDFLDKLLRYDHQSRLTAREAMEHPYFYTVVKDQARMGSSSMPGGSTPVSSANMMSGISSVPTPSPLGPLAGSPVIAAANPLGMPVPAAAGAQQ
Method: as §1

various enzymes [9] = molecular target: various enzymes (Homo sapiens, UniProt Q15569); conditions: compound 1 uM
Method: as §1

various enzymes [10] = molecular target: various enzymes (Homo sapiens, UniProt Q96D53); conditions: compound 1 uM
Method: as §1

various enzymes [11] = molecular target: various enzymes (Homo sapiens, UniProt P49761); conditions: compound 1 uM
various enzymes (Homo sapiens, UniProt P49761), sequence (P49761 whole entry): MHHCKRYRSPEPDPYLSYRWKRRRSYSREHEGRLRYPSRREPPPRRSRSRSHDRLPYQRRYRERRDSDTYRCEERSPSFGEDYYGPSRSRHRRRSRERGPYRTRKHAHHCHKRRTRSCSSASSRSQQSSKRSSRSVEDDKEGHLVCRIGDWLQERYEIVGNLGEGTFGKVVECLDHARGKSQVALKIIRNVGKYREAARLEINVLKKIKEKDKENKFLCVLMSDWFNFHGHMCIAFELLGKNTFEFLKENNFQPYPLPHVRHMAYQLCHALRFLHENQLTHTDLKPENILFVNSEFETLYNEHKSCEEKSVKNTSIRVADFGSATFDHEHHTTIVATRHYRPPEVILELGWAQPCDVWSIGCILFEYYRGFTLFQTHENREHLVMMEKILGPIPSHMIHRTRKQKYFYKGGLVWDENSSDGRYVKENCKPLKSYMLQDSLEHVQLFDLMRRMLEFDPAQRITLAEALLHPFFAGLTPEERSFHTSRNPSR
Method: as §1

various enzymes [12] = molecular target: various enzymes (Homo sapiens, UniProt Q9NYY3); conditions: compound 1 uM
Method: as §1

various enzymes [13] = molecular target: various enzymes (Homo sapiens, UniProt Q9H2G2); conditions: compound 1 uM
Method: as §1

various enzymes [14] = molecular target: various enzymes (Homo sapiens, UniProt Q9Y4K4); conditions: compound 1 uM
various enzymes (Homo sapiens, UniProt Q9Y4K4), sequence (Q9Y4K4 whole entry): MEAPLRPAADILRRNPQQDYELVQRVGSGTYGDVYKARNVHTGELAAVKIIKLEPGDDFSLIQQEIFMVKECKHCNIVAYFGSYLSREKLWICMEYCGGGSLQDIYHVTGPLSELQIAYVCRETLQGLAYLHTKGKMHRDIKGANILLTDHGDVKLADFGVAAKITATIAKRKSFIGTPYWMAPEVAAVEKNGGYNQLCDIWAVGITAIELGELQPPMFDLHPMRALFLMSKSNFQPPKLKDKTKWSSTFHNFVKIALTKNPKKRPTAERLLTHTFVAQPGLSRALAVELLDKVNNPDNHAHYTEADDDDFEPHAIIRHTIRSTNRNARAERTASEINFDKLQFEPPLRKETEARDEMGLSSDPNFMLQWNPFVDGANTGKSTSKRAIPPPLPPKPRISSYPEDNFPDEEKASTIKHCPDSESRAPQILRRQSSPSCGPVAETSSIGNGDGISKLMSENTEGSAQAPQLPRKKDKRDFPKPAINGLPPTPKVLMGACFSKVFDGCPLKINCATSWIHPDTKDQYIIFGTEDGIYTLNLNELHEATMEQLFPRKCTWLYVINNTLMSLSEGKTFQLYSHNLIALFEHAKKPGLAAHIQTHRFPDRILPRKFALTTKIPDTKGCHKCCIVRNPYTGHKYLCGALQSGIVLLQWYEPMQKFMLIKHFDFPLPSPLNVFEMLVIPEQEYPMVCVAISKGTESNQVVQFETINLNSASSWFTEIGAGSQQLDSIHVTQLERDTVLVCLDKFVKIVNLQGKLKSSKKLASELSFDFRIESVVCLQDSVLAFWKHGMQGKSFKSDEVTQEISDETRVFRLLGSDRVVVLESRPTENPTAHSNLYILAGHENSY
Method: as §1

various enzymes [15] = molecular target: T1, various enzymes (Homo sapiens, UniProt Q13043); conditions: compound 1 uM
T1 sequence (Q13043 1-487): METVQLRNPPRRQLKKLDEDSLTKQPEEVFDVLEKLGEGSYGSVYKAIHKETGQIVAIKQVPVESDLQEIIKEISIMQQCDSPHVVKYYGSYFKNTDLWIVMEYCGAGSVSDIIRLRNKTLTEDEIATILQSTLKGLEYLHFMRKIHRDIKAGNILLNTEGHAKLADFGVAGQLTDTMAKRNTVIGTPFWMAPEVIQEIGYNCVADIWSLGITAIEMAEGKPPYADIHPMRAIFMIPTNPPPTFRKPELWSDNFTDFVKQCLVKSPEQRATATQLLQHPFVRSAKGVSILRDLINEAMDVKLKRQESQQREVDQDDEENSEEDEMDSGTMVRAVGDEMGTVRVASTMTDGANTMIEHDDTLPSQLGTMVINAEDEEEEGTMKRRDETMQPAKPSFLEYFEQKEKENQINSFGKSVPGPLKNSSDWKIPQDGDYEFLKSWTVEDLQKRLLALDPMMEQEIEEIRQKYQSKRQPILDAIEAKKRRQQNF
Method: as §1

various enzymes [16] = molecular target: various enzymes (Homo sapiens, UniProt P54764); conditions: compound 1 uM
Method: as §1

various enzymes [17] = molecular target: T2, various enzymes (Homo sapiens, UniProt O14757); conditions: compound 1 uM
T2 sequence (O14757 1-476): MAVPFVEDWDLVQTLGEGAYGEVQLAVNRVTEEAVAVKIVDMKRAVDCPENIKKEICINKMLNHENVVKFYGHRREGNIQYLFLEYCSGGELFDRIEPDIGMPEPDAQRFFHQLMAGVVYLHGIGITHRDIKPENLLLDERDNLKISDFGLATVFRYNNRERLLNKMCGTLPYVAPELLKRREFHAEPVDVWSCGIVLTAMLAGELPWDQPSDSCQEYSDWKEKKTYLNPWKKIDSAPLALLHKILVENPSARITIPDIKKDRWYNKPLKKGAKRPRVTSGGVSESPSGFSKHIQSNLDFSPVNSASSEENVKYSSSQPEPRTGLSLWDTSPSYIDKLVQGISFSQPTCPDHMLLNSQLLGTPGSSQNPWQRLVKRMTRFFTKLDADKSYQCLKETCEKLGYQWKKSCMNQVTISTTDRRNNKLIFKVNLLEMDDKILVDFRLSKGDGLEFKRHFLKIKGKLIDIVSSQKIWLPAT
Method: as §1

various enzymes [18] = molecular target: various enzymes (Homo sapiens, UniProt Q9Y5S2); conditions: compound 1 uM
Method: as §1

various enzymes [19] = molecular target: various enzymes (Homo sapiens, UniProt Q9UBF8); conditions: compound 1 uM
Method: as §1

various enzymes [20] = molecular target: various enzymes (Homo sapiens, UniProt Q13557); conditions: compound 1 uM
Method: as §1

various enzymes [21] = molecular target: various enzymes (Homo sapiens, UniProt Q02156); conditions: compound 1 uM
Method: as §1

various enzymes [22] = molecular target: various enzymes (Homo sapiens, UniProt Q9UF33); conditions: compound 1 uM
Method: as §1

various enzymes [23] = molecular target: various enzymes (Homo sapiens, UniProt P12931); conditions: compound 1 uM
Method: as §1

various enzymes [24] = molecular target: various enzymes (Homo sapiens, UniProt O75747); conditions: compound 1 uM
various enzymes (Homo sapiens, UniProt O75747), sequence (O75747 whole entry): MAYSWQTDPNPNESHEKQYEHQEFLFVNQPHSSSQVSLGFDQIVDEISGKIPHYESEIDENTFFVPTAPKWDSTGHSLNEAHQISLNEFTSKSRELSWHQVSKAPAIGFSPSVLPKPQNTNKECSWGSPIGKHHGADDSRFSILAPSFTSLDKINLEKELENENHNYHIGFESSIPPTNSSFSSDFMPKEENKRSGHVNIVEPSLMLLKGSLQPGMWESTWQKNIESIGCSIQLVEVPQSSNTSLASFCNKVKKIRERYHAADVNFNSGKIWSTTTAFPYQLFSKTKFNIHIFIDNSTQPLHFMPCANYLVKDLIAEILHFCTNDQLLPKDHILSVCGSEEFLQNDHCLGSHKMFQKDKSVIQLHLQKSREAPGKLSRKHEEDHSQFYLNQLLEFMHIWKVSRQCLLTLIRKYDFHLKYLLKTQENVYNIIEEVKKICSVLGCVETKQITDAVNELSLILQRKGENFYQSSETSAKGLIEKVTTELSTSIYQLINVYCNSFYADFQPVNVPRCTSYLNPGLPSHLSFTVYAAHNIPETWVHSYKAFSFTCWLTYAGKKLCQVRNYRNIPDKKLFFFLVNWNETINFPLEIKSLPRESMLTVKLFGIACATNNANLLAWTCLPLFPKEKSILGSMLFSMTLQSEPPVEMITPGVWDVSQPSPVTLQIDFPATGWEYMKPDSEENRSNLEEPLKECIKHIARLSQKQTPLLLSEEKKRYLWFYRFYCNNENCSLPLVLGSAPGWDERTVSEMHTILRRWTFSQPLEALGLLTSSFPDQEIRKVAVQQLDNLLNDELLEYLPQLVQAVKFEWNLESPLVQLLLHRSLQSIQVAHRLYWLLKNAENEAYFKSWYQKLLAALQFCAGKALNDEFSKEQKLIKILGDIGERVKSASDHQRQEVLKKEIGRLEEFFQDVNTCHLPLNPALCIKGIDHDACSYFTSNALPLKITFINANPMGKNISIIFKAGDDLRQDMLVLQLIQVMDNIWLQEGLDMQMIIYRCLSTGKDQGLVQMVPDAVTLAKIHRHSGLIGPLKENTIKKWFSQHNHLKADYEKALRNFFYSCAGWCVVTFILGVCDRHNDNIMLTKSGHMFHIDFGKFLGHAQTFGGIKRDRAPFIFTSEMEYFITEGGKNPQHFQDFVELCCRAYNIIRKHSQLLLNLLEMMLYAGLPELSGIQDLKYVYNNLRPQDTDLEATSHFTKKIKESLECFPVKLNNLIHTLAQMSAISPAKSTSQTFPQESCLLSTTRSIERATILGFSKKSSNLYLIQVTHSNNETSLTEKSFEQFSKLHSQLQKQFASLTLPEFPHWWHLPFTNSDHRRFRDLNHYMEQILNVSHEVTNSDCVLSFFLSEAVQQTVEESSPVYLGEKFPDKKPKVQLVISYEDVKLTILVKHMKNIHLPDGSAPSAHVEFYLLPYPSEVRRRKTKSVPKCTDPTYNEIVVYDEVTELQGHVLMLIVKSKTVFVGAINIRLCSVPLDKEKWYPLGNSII
Method: as §1

various enzymes [25] = molecular target: various enzymes (Homo sapiens, UniProt Q9BQI3); conditions: compound 1 uM
various enzymes (Homo sapiens, UniProt Q9BQI3), sequence (Q9BQI3 whole entry): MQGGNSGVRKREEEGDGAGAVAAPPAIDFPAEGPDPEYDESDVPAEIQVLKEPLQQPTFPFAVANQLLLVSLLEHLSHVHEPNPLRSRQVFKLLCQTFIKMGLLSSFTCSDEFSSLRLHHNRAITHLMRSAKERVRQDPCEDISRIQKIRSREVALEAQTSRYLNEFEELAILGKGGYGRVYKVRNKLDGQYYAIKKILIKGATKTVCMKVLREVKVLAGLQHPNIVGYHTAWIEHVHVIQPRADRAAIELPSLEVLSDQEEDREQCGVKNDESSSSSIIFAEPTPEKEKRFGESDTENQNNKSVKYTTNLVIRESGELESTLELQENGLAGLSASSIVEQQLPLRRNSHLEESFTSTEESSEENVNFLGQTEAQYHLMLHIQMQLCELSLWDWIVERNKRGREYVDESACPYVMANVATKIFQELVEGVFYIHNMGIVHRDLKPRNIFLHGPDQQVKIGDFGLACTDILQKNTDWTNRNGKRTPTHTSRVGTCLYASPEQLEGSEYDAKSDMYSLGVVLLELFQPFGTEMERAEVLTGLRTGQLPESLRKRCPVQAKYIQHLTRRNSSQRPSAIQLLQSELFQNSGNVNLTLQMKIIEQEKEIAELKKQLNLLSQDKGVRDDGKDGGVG
Method: as §1

various enzymes [26] = molecular target: various enzymes (Homo sapiens, UniProt P36888, D835H)
Method: as §1

various enzymes [27] = molecular target: various enzymes (Homo sapiens, UniProt Q9H4A3); conditions: compound 1 uM
Method: as §1

various enzymes [28] = molecular target: various enzymes (Homo sapiens, UniProt P00519, E255K)
Method: as §1

various enzymes [29] = molecular target: various enzymes (Homo sapiens, UniProt Q8WXR4); conditions: compound 1 uM
Method: as §1

various enzymes [30] = molecular target: various enzymes (Homo sapiens, UniProt Q8IWQ3); conditions: compound 1 uM
Method: as §1

various enzymes [31] = molecular target: various enzymes (Homo sapiens, UniProt Q9Y6E0); conditions: compound 1 uM
Method: as §1

| SMILES | Ambit profiling: TSSK3 (various enzymes [1]) | Ambit profiling: PHKG1 (various enzymes [2]) | Ambit profiling: ACVR1B (various enzymes [3]) | Ambit profiling: IKK-alpha (various enzymes [4]) | Ambit profiling: ROS1 (various enzymes [5]) | Ambit profiling: TYRO3 (various enzymes [6]) | Ambit profiling: CSNK2A1 (various enzymes [8]) | Ambit profiling: TESK1 (various enzymes [9]) | Ambit profiling: ADCK4 (various enzymes [10]) | Ambit profiling: CLK3 (various enzymes [11]) | Ambit profiling: PLK2 (various enzymes [12]) | Ambit profiling: SLK (various enzymes [13]) | Ambit profiling: MAP4K5 (various enzymes [14]) | Ambit profiling: MST1 (various enzymes [15]) | Ambit profiling: EPHA4 (various enzymes [16]) | Ambit profiling: CHEK1 (various enzymes [17]) | Ambit profiling: MRCKB (various enzymes [18]) | Ambit profiling: PIK4CB (various enzymes [19]) | Ambit profiling: CAMK2D (various enzymes [20]) | Ambit profiling: PRKCE (various enzymes [21]) | also measured |
| --- | --- | --- | --- | --- | --- | --- | --- | --- | --- | --- | --- | --- | --- | --- | --- | --- | --- | --- | --- | --- | --- |
| CC(C)N1Cc2nn(C)cc2-c2cnc3[nH]cc(c3c2)-c2cn(nc2C(F)(F)F)CCCC1=O [Compound 45, (Z)-5-isopropyl-31-methyl-13-(trifluoromethyl)-11H,21H,31H-5-aza-2(3,5)-pyrrolo[2,3-b]pyridina-1(4,1),3(4,3)-dipyrazolacyclononaphan-6-one] | 90 | 34 | 89 | 100 | 11 | 87 | 19 | 99 | 3.9 | 33 | 90 | 2.8 | 1.2 | 2.8 | 88 | 100 | 86 | 99 | 15 | 90 | Ambit profiling: DYRK18 (various enzymes [7]): 0.55; Ambit profiling: EPHA6 (various enzymes [22]): 18; Ambit profiling: SRC (various enzymes [23]): 25; Ambit profiling: PIK3C2G (various enzymes [24]): 97; Ambit profiling: EIF2AK1 (various enzymes [25]): 100; Ambit profiling: FLT3(D835H) (various enzymes [26]; compound 1 uM): 1.6; Ambit profiling: WNK1 (various enzymes [27]): 100; Ambit profiling: ABL1(E255K)-phosphorylated (various enzymes [28]; compound 1 uM): 7.7; Ambit profiling: MYO3B (various enzymes [29]): 6.7; Ambit profiling: BRSK2 (various enzymes [30]): 64; Ambit profiling: MST3 (various enzymes [31]): 57 |
| COc1c2c(nn1C)CN(C(C)C)C(=O)CCCn1cc(c(C(F)(F)F)n1)-c1c[nH]c3ncc-2cc13 [Compound 50, (Z)-5-isopropyl-35-methoxy-31-methyl-13-(trifluoromethyl)-11H,21H,31H-5-aza-2(3,5)-pyrrolo[2,3-b]pyridina-1(4,1),3(4,3)-dipyrazolacyclononaphan-6-one] | 100 | 34 | 57 | 83 | 5.1 | 99 | 59 | 69 | 7.7 | 26 | 95 | 0.4 | 4.1 | 2.2 | 63 | 100 | 99 | 31 | 20 | 30 | Ambit profiling: DYRK1B (various enzymes [7]): 5.2; Ambit profiling: EPHA6 (various enzymes [22]): 14; Ambit profiling: SRC (various enzymes [23]): 13; Ambit profiling: PIK3C2G (various enzymes [24]): 58; Ambit profiling: EIF2AK1 (various enzymes [25]): 66; Ambit profiling: FLT3(D835H) (various enzymes [26]): 2.8; Ambit profiling: WNK1 (various enzymes [27]): 100; Ambit profiling: ABL1(E255K)-phosphorylated (various enzymes [28]): 2; Ambit profiling: MYO3B (various enzymes [29]): 9; Ambit profiling: BRSK2 (various enzymes [30]): 72; Ambit profiling: MST3 (various enzymes [31]): 63 |
